Non-standard residues stand in square brackets, D forms with d. No end group written: not given here. Aib = CC(C)(N)C(=O)O
Experiments:
[1] = CD (circular dichroism) spectroscopy of α-helix structure; assay type: physicochemical
Method: To evaluate the structures of a linear plasmid DNA and peptides, CD spectra were analyzed using a Chirascan CD spectrometer (Applied Photophysics, UK). […] The final concentration of the linear plasmid DNA was 30 ng/μL. All the samples were dissolved in H2O. For the formation of the artificial chromosome, a mixture of the peptide and the DNA was incubated for 12 days or longer. Scanning was performed using a 2-mm path-length cuvette. Each scan was repeated three times and averaged. MRE (mean residue ellipticity) was calculated based on the number of amino acid residues.
CD (circular dichroism) spectroscopy was performed as follows.
The CD spectra were analyzed using a Chirascan CD spectrometer (Applied Photophysics, UK). […] All the samples were dissolved in H2O. Each scan was repeated three times using a 2-mm path-length cuvette and averaged. MRE (mean residue ellipticity) was calculated based on the number of amino acid residues.

[2] = AFM analysis of self-assembled peptide complexes; assay type: physicochemical; conditions: for AFM morphology / Average diameter (nm): Table 12, self-assembled structure; for AFM morphology: 25 μM in distilled water
Method: AFM was performed using an NX10 system (Park Systems, Korea) in a non-contact mode with PPP-NCHR AFM probes (Nanosensors, Switzerland). The DNA concentration ranged from 1 to 30 ng/μL and the peptide concentration ranged from 1 to 32 μM (in H2O). 2 μL of the sample solution was cast onto a freshly cleaved mica surface and dried. The data obtained by the SmartScan program (Park Systems, Korea) was analyzed using the XEI program (Park Systems, Korea).
The CD spectroscopy was performed in the same manner as in Test Example 2 and the AFM was performed using the NX10 system (Park Systems, Korea) in a non-contact mode with PPP-NCHR AFM probes (Nanosensors, Switzerland). The peptide complex concentration ranged from 1 to 32 μM (in H2O). 2 μL of the sample solution was cast onto a freshly cleaved mica surface and dried. The data obtained by the SmartScan program (Park Systems, Korea) were analyzed using the XEI program (Park Systems, Korea).
The peptide complexes of Examples 37-40 were imaged by AFM. 25 μM of the peptide complex was dissolved in distilled water, sonicated for 5 minutes, incubated overnight and dropped on mica for measurement.

[3] = Table 13, cyclic peptide complexes
[4] = Table 11, peptide complexes of Examples 37-97
[5] = Table 14, coil-rod-coil peptide complexes
[6] = Table 10, hydrophobic peptides of Examples 1-36
[7] = Table 9, linear and cyclic αm-PEG10 peptide complexes, in H2O

## (PEG2)5RRRRRR(PEG2)5WAUAUAUAUAUAUAUAU [Example 111]
[1]; [3]
  [θ]222/[θ]208: 0.95

## (PEG8)2 AUAUAUAUA [Example 55]
[2]
  AFM morphology: Not assembled
[1]; [4]
  θ222 nm/θ208 nm ratio: 0.58

## (PEG8)2 AUAUAUAUAUAUAUA [Example 56]
[2]
  Average diameter (nm): 20-40 nm
  AFM morphology: Micelle
[1]; [4]
  θ222 nm/θ208 nm ratio: 1.11

## (PEG8)2 AUAUAUAUAUAUAUAUAUAUA [Example 57]
[2]
  Average diameter (nm): 30-80 nm
  AFM morphology: Vesicle
[1]; [4]
  θ222 nm/θ208 nm ratio: 1.22

## (PEG8)2AUAUAUAUA(PEG8)2 [Example 123]
[1]; [5]
  [θ]222/[θ]208: 0.6

## (PEG8)2AUAUAUAUAUAUAUA(PEG8)2 [Example 124]
[1]; [5]
  [θ]222/[θ]208: 0.78

## (PEG8)2AUAUAUAUAUAUAUAUAUAUA(PEG8)2 [Example 125]
[2]; AFM
  self-assembly behavior in an aqueous solvent: did not self-assemble
[1]; [5]
  [θ]222/[θ]208: 1.21
[1]; depending on concentration
  [θ]222/[θ]203 ratio: 1.1-1.2

## (PEG8)2AUAUAUAUAUAUAUAUAUAUA(PEG8) [Example 122]
[1]; [5]
  [θ]222/[θ]208: 1.06

## (PEG8)3AUAUAUAUAUAUAUAUAUAUA(PEG8)3 [Example 126]
[1]; [5]
  [θ]222/[θ]208: 1.18

## (PEG8)AUAUAUAUA(PEG8)2 [Example 119]
[1]; [5]
  [θ]222/[θ]208: 0.61

## (PEG8)AUAUAUAUAUAUAUA(PEG8)2 [Example 120]
[1]; [5]
  [θ]222/[θ]208: 0.83

## (PEG8)AUAUAUAUAUAUAUAUAUAUA(PEG8)2 [Example 121]
[1]; [5]
  [θ]222/[θ]208: 1.04

## (PEG10)2AUAUAUAUAUAUAUAUAUAUA(PEG10)2 [Example 127]
[1]; [5]
  [θ]222/[θ]208: 1.2

## AUAUAUAUA [Example 2]
[1]; [6]
  θ222 nm/θ208 nm ratio: 0.72

## AUAUAUAUA(PEG8)2 [Example 52]
[2]
  AFM morphology: Not assembled
[1]; [4]
  θ222 nm/θ208 nm ratio: 0.54

## AUAUAUAUAUAUAUA [Example 8]
[1]; [6]
  θ222 nm/θ208 nm ratio: 1.13

## AUAUAUAUAUAUAUA(PEG8)2 [Example 53]
[2]
  Average diameter (nm): 20-30 nm
  AFM morphology: Micelle
[1]; [4]
  θ222 nm/θ208 nm ratio: 1.11

## AUAUAUAUAUAUAUAUAUAUA [Example 14]
[1]; [6]
  θ222 nm/θ208 nm ratio: 1.26
[1]; from CD spectra
  α-helix structure (in words): monomeric, nonpolar and perfect α-helix (MNP-helix) structure

## AUAUAUAUAUAUAUAUAUAUA(PEG8)2 [Example 54]
[2]
  Average diameter (nm): 20-90 nm
  AFM morphology: Micelle, vesicle
[1]; [4]
  θ222 nm/θ208 nm ratio: 1.2

## EAUAUAUAUAUAUAUAUAUAUA(PEG8)2 [Example 90]
[2]
  Average diameter (nm): 20-30 nm
  AFM morphology: Micelle
[1]; [4]
  θ222 nm/θ208 nm ratio: 1.21

## EAUAUAUAUAUAUAUAUAUAUAGSGSGSGS (EA[Aib]A[Aib]A[Aib]A[Aib]A[Aib]A[Aib]A[Aib]A[Aib]A[Aib]A[Aib]AGSGSGSGS) [Example 95]
[2]
  Average diameter (nm): 240-280 nm
  AFM morphology: Vesicle
[1]; [4]
  θ222 nm/θ208 nm ratio: 1.2

## EAUAUAUAUAUAUAUAUAUAUARGDRGDRGD (EA[Aib]A[Aib]A[Aib]A[Aib]A[Aib]A[Aib]A[Aib]A[Aib]A[Aib]A[Aib]ARGDRGDRGD) [Example 94]
[1]; [4]
  θ222 nm/θ208 nm ratio: 1.06

## EEAUAUAUAUAUAUAUAUAUAUA(PEG8)2 [Example 91]
[2]
  Average diameter (nm): 20-30 nm
  AFM morphology: Micelle
[1]; [4]
  θ222 nm/θ208 nm ratio: 1.18

## EEEAUAUAUAUAUAUAUAUAUAUA(PEG8)2 [Example 92]
[2]
  Average diameter (nm): 200 nm
  AFM morphology: Vesicle
[1]; [4]
  θ222 nm/θ208 nm ratio: 1.2

## EEEEAUAUAUAUAUAUAUAUAUAUA(PEG8)2 (EEEEAXAXAXAXAXAXAXAXAXAXA; (PEG8)2 C-terminal; SITE 6 2-aminoisobutyric acid; SITE 8 2-aminoisobutyric acid; SITE 10 2-aminoisobutyric acid; SITE 12 2-aminoisobutyric acid; SITE 14 2-aminoisobutyric acid; SITE 16 2-aminoisobutyric acid; SITE 20 2-aminoisobutyric acid; SITE 18 2-aminoisobutyric acid; SITE 22 2-aminoisobutyric acid; SITE 24 2-aminoisobutyric acid) [Example 93]
[2]
  Average diameter (nm): 180-360 nm
  AFM morphology: Vesicle
[1]; [4]
  θ222 nm/θ208 nm ratio: 1.16

## Example 37: peptide complex (Wαm-RGD), SEQ ID NO 37 (A[Aib]A[Aib]A[Aib]A[Aib]AGRGDRGDG)
[2]
  AFM morphology: Irregular vesicle
[1]; [4]
  θ222 nm/θ208 nm ratio: 0.28

## Example 43: peptide complex (Wαm-RGD, Wαm-GS), SEQ ID NO 43 (AXAXAXAXAXAXAXAXAXAXAGSGSG; SITE 2 2-aminoisobutyric acid; SITE 4 2-aminoisobutyric acid; SITE 6 2-aminoisobutyric acid; SITE 8 2-aminoisobutyric acid; SITE 10 2-aminoisobutyric acid; SITE 12 2-aminoisobutyric acid; SITE 14 2-aminoisobutyric acid; SITE 16 2-aminoisobutyric acid; SITE 18 2-aminoisobutyric acid; SITE 20 2-aminoisobutyric acid)
[1]; [4]
  θ222 nm/θ208 nm ratio: 1.15

## Example 45: peptide complex (Wαm-RGD, Wαm-GS), SEQ ID NO 45 (A[Aib]A[Aib]A[Aib]A[Aib]A[Aib]A[Aib]A[Aib]A[Aib]A[Aib]A[Aib]AGSGSGSGSG)
[1]; [4]
  θ222 nm/θ208 nm ratio: 1.09

## GSGAUAUAUAUAUAUAUAUAUAUAGSG [Example 116]
[1]; [5]
  [θ]222/[θ]208: 1.15

## GSGSGAUAUAUAUAUAUAUAUAUAUAGSGSG [Example 117]
[1]; [5]
  [θ]222/[θ]208: 1.07

## GSGSGSGSGAUAUAUAUAUAUAUAUAUAUAGSGSGSGSG [Example 118]
[1]; [5]
  [θ]222/[θ]208: 1.02

## RAUAUAUAUAUAUAUAUAUAUAGRGDRGDRGDRGDG [Example 67]
[1]; Table 11
  minimum at 222 and 208 nm in the spectra: no minimum was observed

## RGDRGDAUAUAUAUAUAUAUAUAUAUARR [Example 73]
[1]; [4]
  θ222 nm/θ208 nm ratio: 1.1

## RGDRGDRGDAUAUAUAUAUAUAUAUAUAUARR [Example 74]
[1]; [4]
  θ222 nm/θ208 nm ratio: 1.11

## RGDRGDRGDRGDAUAUAUAUAUAUAUAUAUAUAR [Example 72]
[1]; Table 11
  minimum at 222 and 208 nm in the spectra: no minimum was observed

## RGDRGDRGDRGDAUAUAUAUAUAUAUAUAUAUARR [Example 75]
[1]; Table 11
  minimum at 222 and 208 nm in the spectra: no minimum was observed

## WAUAUAUAU(PEG2)5 [Example 46]
[1]; [4]
  θ222 nm/θ208 nm ratio: 0.72

## WAUAUAUAUAUAU(PEG2)5 [Example 48]
[1]; [7]
  [θ]222/[θ]208: 0.88
[1]; [4]
  θ222 nm/θ208 nm ratio: 0.88

## WAUAUAUAUAUAU(PEG2)5 [Example 100]
[1]; [7]
  [θ]222/[θ]208: 0.95
[1]; [3]
  [θ]222/[θ]208: 0.95

## WAUAUAUAUAUAUAU(PEG2)5 [Example 49]
[1]; [7]
  [θ]222/[θ]208: 1.05
[1]; [4]
  θ222 nm/θ208 nm ratio: 1.05

## WAUAUAUAUAUAUAU(PEG2)5 [Example 101]
[1]; [7]
  [θ]222/[θ]208: 1.01
[1]; [3]
  [θ]222/[θ]208: 1.01

## WAUAUAUAUAUAUAUAU(PEG2)5 [Example 50]
[1]; [7]
  [θ]222/[θ]208: 1.10
[1]; [4]
  θ222 nm/θ208 nm ratio: 1.10

## WAUAUAUAUAUAUAUAU(PEG2)5RGDRGD(PEG2)5 [Example 110]
[1]; [3]
  [θ]222/[θ]208: 1.06

## WAUAUAUAUAUAUAUAUAU(PEG2)5 [Example 51]
[1]; [4]
  θ222 nm/θ208 nm ratio: 1.19

## WAUAUAUAUAUAUAUAUAU(PEG2)5 [Example 103]
[1]; [3]
  [θ]222/[θ]208: 1.21

## WAUAUAUAUAUAUAUAUAUGHHHHHHHHHHGRGDRGDRGDG [Example 109]
[1]; [3]
  [θ]222/[θ]208: 0.89

## WAUAUAUAUAUAUAUAUGHHHHHHHHHHGRGDRGDRGDG [Example 108]
[1]; [3]
  [θ]222/[θ]208: 0.83

## WAUAUAUAUAUAUAUGHHHHHHHHHHGRGDRGDRGDG [Example 107]
[1]; [3]
  [θ]222/[θ]208: 0.71

## WAUAUAUAUAUAUGHHHHHHHHHHGRGDRGDRGDG [Example 106]
[1]; [3]
  [θ]222/[θ]208: 0.65

## WAUAUAUAUAUGHHHHHHHHHHGRGDRGDRGDG [Example 105]
[1]; [3]
  [θ]222/[θ]208: 0.38

## WAUAUAUAUGHHHHHHHHHHGRGDRGDRGDG [Example 104]
[1]; [3]
  [θ]222/[θ]208: 0.2
